Key:
[1] = system: sn-Glycerol-3-Phosphate Acyl Transferase; test: In vitro enzyme activity, liver homogenate: sn-glycerol-3-phosphate acyl transferase; format: biochemical, CF1 male mouse; conditions: ± SD, N = 6
Procedure: (§1) In vitro enzymatic studies were undertaken using 10% homogenates of CF1 male mouse liver with […] of compound 3,4,5,6-dibenzohomopiperidine. In addition, in vivo enzymatic studies were performed, again using 10% liver homogenates (prepared in 0.25 M sucrose plus 0.001 M (ethylenedinitrilo)-tetraacetic acid, ph 7.25 from CF1 male mice obtained after administering 3,4,5,6-dibenzohomopiperidine for 16 days at a concentration ranging from 10 to 60 mg/kg/day, intraperitoneally.
(§2) The following enzyme activities were determined by following standard literature procedures: acetyl coenzyme synthetase; adenosine triphosphate dependent citrate lyase; mitochondrial citrate exchange; cholesterol/7 hydroxylase; 3-hydroxy-3-methyl-glutaryl coenzyme A reductase; acetyl coenzyme A carboxylase activity; fatty acid synthetase activity; sn-glycerol-3-phosphate acyl transferase activity; phosphatidate phosphohydrolase activity; cholesterol acyl transferase; and heparin activated hepatic lypoprotein lipase. Protein was determined for all enzyme assays by the Lowry et al. technique (J. Biol. Chem, 193, 265 (1951)).

Acetyl CoA Synthetase = target: T1, Acetyl CoA Synthetase (Mus musculus, UniProt Q9QXG4); test: In vitro enzyme activity, liver homogenate: acetyl CoA synthetase; format: biochemical, CF1 male mouse; conditions: ± SD, N = 6, read-out: Percent Control, in vitro enzyme activity
T1 construct: 10% homogenates of CF1 male mouse liver; from tissue; host or cells: CF1 male mouse liver, 10% homogenate
Procedure: as §1, §2

T1 sequence (Q9QXG4 whole entry): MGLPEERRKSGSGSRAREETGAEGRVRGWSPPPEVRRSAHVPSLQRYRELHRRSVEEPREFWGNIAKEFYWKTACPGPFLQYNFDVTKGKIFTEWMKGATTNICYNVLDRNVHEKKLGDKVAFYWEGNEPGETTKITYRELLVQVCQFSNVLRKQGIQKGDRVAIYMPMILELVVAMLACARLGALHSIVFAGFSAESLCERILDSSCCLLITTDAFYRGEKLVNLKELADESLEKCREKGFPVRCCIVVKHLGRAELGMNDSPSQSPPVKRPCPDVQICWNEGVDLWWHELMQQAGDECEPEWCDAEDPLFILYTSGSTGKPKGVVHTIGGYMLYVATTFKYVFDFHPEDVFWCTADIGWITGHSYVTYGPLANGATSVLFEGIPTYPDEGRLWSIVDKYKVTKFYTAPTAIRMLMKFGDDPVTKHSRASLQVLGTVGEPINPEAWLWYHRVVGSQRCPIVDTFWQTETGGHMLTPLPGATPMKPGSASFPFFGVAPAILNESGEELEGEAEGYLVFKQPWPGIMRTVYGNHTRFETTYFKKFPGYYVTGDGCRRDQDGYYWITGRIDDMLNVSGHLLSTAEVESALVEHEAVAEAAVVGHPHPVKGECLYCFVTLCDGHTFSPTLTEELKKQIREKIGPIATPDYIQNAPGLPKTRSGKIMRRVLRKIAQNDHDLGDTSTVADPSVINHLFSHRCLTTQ

In the case of `c1ccc2c(c1)CNCc1ccccc1-2` [Compound 3, 3,4,5,6-dibenzohomopiperidine], the “Percent Control, in vitro enzyme activity” value (from here on “Percent Control”) ([1]; 50 μM) is reported as 35 ± 6%, the “Percent Control” value ([1]; 100 μM) is reported as 34 ± 5% and the “Percent Control” value ([1]; 200 μM) is reported as 51 ± 4%. It also gave a remaining activity at 50 µM (Acetyl CoA Synthetase; 50 μM) of 112 ± 6%, a remaining activity at 100 µM (Acetyl CoA Synthetase; 100 μM) of 100 ± 7% and a remaining activity at 200 µM (Acetyl CoA Synthetase; 200 μM) of 101 ± 6%.

— patent publication US4689326A, “Process for controlling hyperlipidemia” (Research Corporation, priority 1985, dated 1987)
